This is an account of results in US8193224B2, “Medicinal composition for prevention or treatment of parasitic protozoan infection” (Fujifilm Corporation, priority 2004, dated 2012).

The test system of the experiment is Trypanosoma brucei rhodensiense (STIB 900 strain). The experiment is described as follows: African trypanosome protozoa growth inhibition screening test. It counts as cell-based. As to conditions: Trypanosoma brucei, STIB900; STIB 900 strain, blood stream form, 72 hours, Alamar Blue; read-out: 50% growth inhibiting concentration Trypanosoma brucei rhod. Background: Resazurin is reduced to fluorescent resorufin, in cell work by metabolically active cells.

For `CCN1/C(=C/C=c2\s/c(=C\c3sc4c5ccccc5ccc4[n+]3CC)n(CC)c2=O)Sc2ccc3ccccc3c21` [A-1], the EC50 came to 16 nM.

On to `CCN1/C(=C/C=c2\s/c(=C\C3=[N+](CC)CCS3)n(CC)c2=O)C=Cc2ccccc21` [A-10], for which the EC50 was found to be 200 nM. As to `CCN1C(C)=CS/C1=C\C=c1/s/c(=C\c2sc3ccccc3[n+]2CC)n(CC)c1=O` [A-15], the EC50 was determined as 89 nM.
